{
  "source": "paper PMC4303524",
  "about": "(Organic & biomolecular chemistry, 2015)",
  "key": {"LasR Y93F": {"target": "T1, LasR Y93F (Pseudomonas aeruginosa, UniProt P25084, Y93F)", "T1 sequence (P25084 1-239 Y93F)": "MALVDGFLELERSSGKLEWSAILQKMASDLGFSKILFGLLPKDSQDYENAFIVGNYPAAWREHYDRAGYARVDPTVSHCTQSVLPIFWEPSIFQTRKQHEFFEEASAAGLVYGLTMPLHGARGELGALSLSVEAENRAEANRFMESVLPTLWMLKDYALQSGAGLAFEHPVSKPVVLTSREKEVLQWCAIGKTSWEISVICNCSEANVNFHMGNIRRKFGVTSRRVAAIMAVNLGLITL", "assay": "β-galactosidase reporter-gene assay, LasR activation", "format": "cell-based"}, "LasR S129A": {"target": "T2, LasR S129A (Pseudomonas aeruginosa, UniProt P25084, S129A)", "T2 sequence (P25084 1-239 S129A)": "T1 sequence (P25084 1-239 Y93F) with F93Y, S129A", "assay": "β-galactosidase reporter-gene assay, LasR activation", "format": "cell-based"}, "LasR T115V": {"target": "T3, LasR T115V (Pseudomonas aeruginosa, UniProt P25084, T115V)", "T3 sequence (P25084 1-239 T115V)": "T1 sequence (P25084 1-239 Y93F) with F93Y, T115V", "assay": "β-galactosidase reporter-gene assay, LasR activation", "format": "cell-based"}, "LasR T75V": {"target": "T4, LasR T75V (Pseudomonas aeruginosa, UniProt P25084, T75V)", "T4 sequence (P25084 1-239 T75V)": "T1 sequence (P25084 1-239 Y93F) with T75V, F93Y", "assay": "β-galactosidase reporter-gene assay, LasR activation", "format": "cell-based"}, "LasR W60F": {"target": "T5, LasR W60F (Pseudomonas aeruginosa, UniProt P25084, W60F)", "T5 sequence (P25084 1-239 W60F)": "T1 sequence (P25084 1-239 Y93F) with W60F, F93Y", "assay": "β-galactosidase reporter-gene assay, LasR activation", "format": "cell-based", "details": "for effect of mutation on LasR activation (in words): ligand at 100 nM"}, "wild-type LasR [1]": {"target": "T6, wild-type LasR (Pseudomonas aeruginosa, UniProt P25084)", "T6 sequence (P25084 1-239)": "T1 sequence (P25084 1-239 Y93F) with F93Y", "assay": "β-galactosidase reporter-gene assay, LasR activation", "format": "cell-based", "details": "E. coli reporter, geometric mean of biological triplicates"}, "LasR R61M": {"target": "T7, LasR R61M (Pseudomonas aeruginosa, UniProt P25084, R61M)", "T7 sequence (P25084 1-239 R61M)": "T1 sequence (P25084 1-239 Y93F) with R61M, F93Y", "assay": "β-galactosidase reporter-gene assay, LasR activation", "format": "cell-based"}, "LasR Y56F": {"target": "T8, LasR Y56F (Pseudomonas aeruginosa, UniProt P25084, Y56F)", "T8 sequence (P25084 1-239 Y56F)": "T1 sequence (P25084 1-239 Y93F) with Y56F, F93Y", "assay": "β-galactosidase reporter-gene assay, LasR activation", "format": "cell-based"}, "wild-type LasR [2]": {"target": "T6, wild-type LasR", "details": "read-out: EC50 value in wild-type LasR; cited from earlier work"}, "LasR W88F": {"target": "T9, LasR W88F (Pseudomonas aeruginosa, UniProt P25084, W88F)", "T9 sequence (P25084 1-239 W88F)": "T1 sequence (P25084 1-239 Y93F) with W88F, F93Y", "assay": "β-galactosidase reporter-gene assay, LasR activation", "format": "cell-based"}, "LasR D73L": {"target": "T10, LasR D73L (Pseudomonas aeruginosa, UniProt P25084, D73L)", "T10 sequence (P25084 1-239 D73L)": "T1 sequence (P25084 1-239 Y93F) with D73L, F93Y", "assay": "β-galactosidase reporter-gene assay, LasR activation", "format": "cell-based"}, "[3]": {"details": "E. coli reporter, geometric mean of biological triplicates"}},
  "note": "Positions count from the first letter of the chain named. Where two headings read alike, the source gives them in different places.",
  "data": [
    {"smiles": "CCCCCCCCCC(=O)CC(=O)NC1CCSC1=O", "note": "(centres unmarked) [Ligand 1]", "values": [
      {"measurement": "EC50", "setting": "LasR Y93F; [3]", "result": 10, "unit": "nM"},
      {"measurement": "EC50", "setting": "LasR S129A; [3]", "result": 30, "unit": "nM"},
      {"measurement": "EC50", "setting": "LasR T115V; [3]", "result": 3500, "unit": "nM"},
      {"measurement": "EC50", "setting": "LasR T75V; [3]", "result": 0.5, "unit": "nM"},
      {"measurement": "EC50", "setting": "LasR W60F; [3]", "result": 70, "unit": "nM"},
      {"measurement": "EC50", "setting": "wild-type LasR [1]", "result": 5, "unit": "nM"},
      {"measurement": "EC50", "setting": "LasR R61M; [3]", "result": 80, "unit": "nM"},
      {"measurement": "EC50", "setting": "LasR Y56F; [3]", "result": 5, "unit": "nM"}
    ]},
    {"smiles": "CCCCCCCCCC(=O)CC(=O)NC1CCCC1", "note": "[Ligand 2]", "values": [
      {"measurement": "effect of mutation on LasR activation (in words)", "setting": "LasR S129A; ligand at 10 μM", "result": "significantly detrimental"},
      {"measurement": "effect of mutation on LasR activation (in words)", "setting": "LasR T115V; ligand at 10 μM", "result": "significantly detrimental"},
      {"measurement": "effect of mutation on LasR activation (in words)", "setting": "LasR R61M; ligand at 10 μM", "result": "significantly detrimental"}
    ]},
    {"smiles": "CCCCCCCCCC(=O)CC(=O)Nc1ccccc1", "note": "[Ligand 3]", "values": [
      {"measurement": "activity in mutant LasR (activation, in words)", "setting": "LasR Y93F; ligand at 10 μM", "result": "flipped the activity of 3 into an agonist"},
      {"measurement": "activity in mutant LasR (activation, in words)", "setting": "LasR W60F; ligand at 10 μM", "result": "moderate agonist"},
      {"measurement": "activity in mutant LasR (activation, in words)", "setting": "LasR Y56F; ligand at 10 μM", "result": "moderate agonist"}
    ]},
    {"smiles": "CCCCCCCCCCCC(=O)N[C@H]1CCOC1=O", "note": "[Ligand 4]", "values": [
      {"measurement": "effect of mutation on LasR activation (in words)", "setting": "LasR S129A; ligand at 100 nM", "result": "significantly decreased LasR activation"},
      {"measurement": "effect of mutation on LasR activation (in words)", "setting": "LasR T115V; ligand at 100 nM", "result": "destroyed LasR activation"},
      {"measurement": "effect of mutation on LasR activation (in words)", "setting": "LasR W60F", "result": "significantly decreased LasR activation"},
      {"measurement": "EC50", "setting": "wild-type LasR [2]", "result": 40, "unit": "nM"},
      {"measurement": "effect of mutation on LasR activation (in words)", "setting": "LasR R61M; ligand at 100 nM", "result": "perhaps only a slight effect"},
      {"measurement": "effect of mutation on LasR activation (in words)", "setting": "LasR Y56F; ligand at 100 nM", "result": "small but significant impact"}
    ]},
    {"smiles": "CCCCCCCCCCCC(=O)N[C@H]1CCSC1=O", "note": "[Ligand 5]", "values": [
      {"measurement": "effect of mutation on LasR activation (in words)", "setting": "LasR S129A; ligand at 100 nM", "result": "significantly decreased LasR activation"},
      {"measurement": "effect of mutation on LasR activation (in words)", "setting": "LasR T115V; ligand at 100 nM", "result": "destroyed LasR activation"},
      {"measurement": "effect of mutation on LasR activation (in words)", "setting": "LasR W60F", "result": "significantly decreased LasR activation"},
      {"measurement": "effect of mutation on LasR activation (in words)", "setting": "LasR R61M; ligand at 100 nM", "result": "no significant effect"}
    ]},
    {"smiles": "CCCCCCCCCC(=O)CC(=O)N[C@H]1CCOC1=O", "note": "[OdDHL, N-(3-oxo)-dodecanoyl L-homoserine lactone, reference compound]", "values": [
      {"measurement": "maximal activation (% vs. wild-type)", "setting": "LasR Y93F; 10 μM OdDHL", "result": 93, "unit": "%"},
      {"measurement": "maximal activation (% vs. wild-type)", "setting": "LasR S129A; 10 μM OdDHL", "result": 103, "unit": "%"},
      {"measurement": "maximal activation (% vs. wild-type)", "setting": "LasR W88F; 10 μM OdDHL", "result": 0, "unit": "%"},
      {"measurement": "EC50", "setting": "LasR W88F; E. coli reporter", "result": "inactive"},
      {"measurement": "maximal activation (% vs. wild-type)", "setting": "LasR T115V; 100 μM OdDHL", "result": 109, "unit": "%"},
      {"measurement": "maximal activation (% vs. wild-type)", "setting": "LasR T75V; 10 μM OdDHL, mean of biological triplicates", "result": 106, "unit": "%"},
      {"measurement": "maximal activation (% vs. wild-type)", "setting": "LasR W60F; 10 μM OdDHL", "result": 73, "unit": "%"},
      {"measurement": "maximal activation (% vs. wild-type)", "setting": "LasR R61M; 10 μM OdDHL", "result": 56, "unit": "%"},
      {"measurement": "maximal activation (% vs. wild-type)", "setting": "LasR D73L; 10 μM OdDHL", "result": 0, "unit": "%"},
      {"measurement": "EC50", "setting": "LasR D73L; E. coli reporter", "result": "inactive"},
      {"measurement": "maximal activation (% vs. wild-type)", "setting": "LasR Y56F; 10 μM OdDHL", "result": 102, "unit": "%"}
    ]}
  ]
}
